The source of these data is patent publication US4605744A, “Imidazole derivatives” (Hoffmann-La Roche Inc., priority 1985, dated 1986).

Assay type in all cases: cell-based
One test concerns S. marcescens S714. Description: In vitro antibacterial activity (MIC). The conditions noted are these: Serratia marcescens, S714, S. marcescens S714; read-out: MIC. In short, it runs like this:
(§1)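 Broth microdilution in Mueller-Hinton broth, drug range 128 to 0.008 μg/ml. Each well received 1.5 μl of a 10^-2 dilution of an overnight culture; sealed trays were incubated overnight at 37° C. MIC = lowest concentration with no visible growth.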

The test system of another test is P. mirabilis 190. Description: In vitro antibacterial activity (MIC). Particulars: Proteus mirabilis, 190, P. mirabilis 190; read-out: MIC. The method, boiled down: as §1
The next test concerns S. marcescens S3. Put plainly: In vitro antibacterial activity (MIC). The conditions noted are these: Serratia marcescens; S. marcescens S3; read-out: MIC. In short, it runs like this:
as §1

The subject of another test is E. coli 387-1. Description: In vitro antibacterial activity (MIC). Particulars: Escherichia coli, 3871, E. coli 387-1; read-out: MIC. The method, boiled down:
as §1

For a further test, the system named is S. marcescens SM. Put plainly: In vitro antibacterial activity (MIC). Particulars: Serratia marcescens, read-out: MIC. In short, it runs like this:
as §1

The subject of another test is S. typhi P58A. Put plainly: In vitro antibacterial activity (MIC). Particulars: Salmonella enterica, TYPHI. The method, boiled down:
as §1

The next test relates to S. marcescens S147. Description: In vitro antibacterial activity (MIC). The conditions noted are these: Serratia marcescens; S. marcescens S147; read-out: MIC. In short, it runs like this: as §1
Another test concerns P. aeruginosa 8710. Description: In vitro antibacterial activity (MIC). Particulars: Pseudomonas aeruginosa; P. aeruginosa 8710; read-out: MIC. In short, it runs like this:
as §1

For another test, the system named is P. aeruginosa B. Put plainly: In vitro antibacterial activity (MIC). The conditions noted are these: Pseudomonas aeruginosa, read-out: MIC. The method, boiled down:
as §1

The test system of the next test is S. pyogenes 4. Description: In vitro antibacterial activity (MIC). The conditions noted are these: Streptococcus pyogenes, 4, S. pyogenes 4; read-out: MIC. In short, it runs like this: as §1
The next test relates to S. marcescens 5805. Put plainly: In vitro antibacterial activity (MIC). Particulars: Serratia marcescens, 5805, S. marcescens 5805; read-out: MIC. In short, it runs like this: as §1
In another test the test system is S. faecalis C1. Description: In vitro antibacterial activity (MIC). The conditions noted are these: Enterococcus faecalis; S. faecalis C1; read-out: MIC. In short, it runs like this:
as §1

The next test relates to E. aerogenes 83. Description: In vitro antibacterial activity (MIC). The method, boiled down: as §1
The next test deals with K. pneumoniae 503-964. Description: In vitro antibacterial activity (MIC). Particulars: Klebsiella pneumoniae, 503964; K. pneumoniae 503-964; read-out: MIC. The method, boiled down: as §1
In another test the test system is K. pneumoniae 8357. Put plainly: In vitro antibacterial activity (MIC). In short, it runs like this: as §1
For the next test, the system named is E. cloacae 9295. Description: In vitro antibacterial activity (MIC). Particulars: Enterobacter cloacae, 9295, E. cloacae 9295; read-out: MIC. The method, boiled down: as §1
The test system of another test is P. aeruginosa Stone 130. Description: In vitro antibacterial activity (MIC). The conditions noted are these: Pseudomonas aeruginosa, STONE130, read-out: MIC. The method, boiled down:
as §1

For the next test, the system named is P. aeruginosa 5700. Description: In vitro antibacterial activity (MIC). The conditions noted are these: Pseudomonas aeruginosa, 5700, P. aeruginosa 5700; read-out: MIC. The method, boiled down:
as §1

The next test has as its system K. pneumoniae 35. Put plainly: In vitro antibacterial activity (MIC). In short, it runs like this:
as §1

Another test deals with K. pneumoniae HE7. Description: In vitro antibacterial activity (MIC). The conditions noted are these: Klebsiella pneumoniae; K. pneumoniae HE7; read-out: MIC. The method, boiled down:
as §1

In a further test the test system is P. rettgeri ATCC 9250. Put plainly: In vitro antibacterial activity (MIC). The conditions noted are these: Providencia rettgeri, ATCC9250, P. rettgeri ATCC 9250; read-out: MIC. In short, it runs like this:
as §1

The test system of the next test is E. coli 257. Put plainly: In vitro antibacterial activity (MIC, Mueller-Hinton broth). As for the experimental part: Drug dilutions are prepared in Mueller-Hinton broth ranging from 128 to 0.008 μg/ml. The diluted agents are dispensed in 100 μl amounts into the wells of a 96-well tray and used immediately or frozen at -10° to -70° C. until needed. Using an automated inoculator, 1.5 μl of a 10^-2 dilution of an overnight culture is added to each well of the tray. The tops of the trays are then sealed using transparent tape and incubated overnight at 37° C. The trays are examined with the aid of a viewer. The lowest concentration at which no growth is observed is considered to be the minimum inhibitory concentration (MIC).

Setting [1] is: Klebsiella aerogenes, 83, E. aerogenes 83, read-out: MIC.
Setting [2] is: Klebsiella pneumoniae, 8357, K. pneumoniae 8357, read-out: MIC.
[3] abbreviates: Klebsiella pneumoniae, K. pneumoniae 35, read-out: MIC.
Setting [4] is: Escherichia coli, 257, E. coli 257, read-out: MIC.

Counter-ions that a name gives are not always drawn. Like-named read-outs stand apart in the source and are kept apart here.

On to `CCc1nc(C)cn1CCCC1CCN(C=N[C@@H]2C(=O)N3[C@@H]2SC(C)(C)[C@@H]3C(=O)O)CC1` [G, [2S-(2alpha,5alpha,6beta)]-6-[[[4-[3-(2-ethyl-4methyl-1H-imidazol-1-yl)propyl]piperidinyl]methylene]amino]-3,3-dimethyl-7-oxo-4-thia-1-azabicyclo[3.2.0]heptane-2-carboxylic acid hydrochloride], for which the MIC with S. marcescens S714 was 8 µg/mL; in the test on P. mirabilis 190 it was 0.5 µg/mL; in the test on S. marcescens S3 it was 1 µg/mL; in the test on E. coli 387-1 it was 0.25 µg/mL; in the test with S. marcescens SM, 1 µg/mL; in the test with S. typhi P58A, 0.25 µg/mL. The MIC in the test with S. marcescens S147 was 1 µg/mL; with P. aeruginosa 8710, greater than 128 µg/mL; in the test with P. aeruginosa B it was 0.25 µg/mL; in the test on S. pyogenes 4, 1 µg/mL; with S. marcescens 5805, 4 µg/mL; in the test with S. faecalis C1, 128 µg/mL. The MIC with E. aerogenes 83 (setting [1]) is 0.5 µg/mL; with K. pneumoniae 503-964 it was 0.062 µg/mL; against K. pneumoniae 8357 (Klebsiella pneumoniae, 8357), 1 µg/mL; in the test on E. cloacae 9295, 0.5 µg/mL; in the test with P. aeruginosa Stone 130, greater than 128 µg/mL; with P. aeruginosa 5700, 1 µg/mL. Also, the MIC was 0.5 µg/mL against K. pneumoniae 35 (Klebsiella pneumoniae, 35, K. pneumoniae 35); greater than 128 µg/mL in the test on K. pneumoniae HE7; 1 µg/mL in the test on P. rettgeri ATCC 9250; 0.25 µg/mL against E. coli 257 (Escherichia coli, 257).

Turning to `CC1(C)S[C@@H]2[C@H](N=CN3CCC(CCCn4ccnc4CO)CC3)C(=O)N2[C@H]1C(=O)O` [R, [2S-(2alpha,5alpha,6beta)]-6-[[[4-[3-[2-(hydroxymethyl)-1H-imidazol-1-yl]propyl-1-piperidinyl]methylene]amino]-3,3-dimethyl-7-oxo-4-thia-1-azabicyclo[3.2.0]heptane-2-carboxylic acid hydrochloride 1.1 molar hydrate], the minimum inhibitory concentration (MIC) with S. marcescens S714 stood at 1 µg/mL; with P. mirabilis 190, 0.062 µg/mL; with S. marcescens S3, 0.125 µg/mL; in the test on E. coli 387-1, 2 µg/mL; with S. marcescens SM, 0.062 µg/mL; in the test on S. typhi P58A it was 0.062 µg/mL. The minimal inhibitory concentration (MIC) in the test with S. marcescens S147 stood at 0.125 µg/mL; with S. marcescens 5805, 1 µg/mL; with E. aerogenes 83 (Klebsiella aerogenes, 83), 1 µg/mL; with K. pneumoniae 503-964, 0.016 µg/mL; with K. pneumoniae 8357 (setting [2]), 0.062 µg/mL; with E. cloacae 9295, 0.125 µg/mL. Also, the MIC in the test with K. pneumoniae 35 (setting [3]) is 0.062 µg/mL; in the test with K. pneumoniae HE7, greater than 128 µg/mL; in the test with P. rettgeri ATCC 9250, 0.062 µg/mL; in the test on E. coli 257 (setting [4]) it was 0.016 µg/mL.

As to `CN(C)C=Nc1nccn1CCCC1CCN(C=N[C@@H]2C(=O)N3[C@@H]2SC(C)(C)[C@@H]3C(=O)O)CC1` [S, [2S-(2alpha,5alpha,6beta)]-6-[[[4-[3-[2-[[(dimethylamino)methylene]amino]-1H-imidazol-1-yl]propyl]-1-piperidinyl]methylene]amino]-3,3-dimethyl-7-oxo-4-thia-1-azabicyclo[3.2.0]heptane-2-carboxylic acid 1.7 molar hydrochloride 2.6 molar hydrate], the MIC in the test with S. marcescens S714 came to 4 µg/mL; with P. mirabilis 190, 1 µg/mL; with S. marcescens S3, 2 µg/mL; in the test with E. coli 387-1, 2 µg/mL; in the test with S. marcescens SM, 2 µg/mL; in the test with S. typhi P58A, 0.25 µg/mL. For the same molecule, the MIC with S. marcescens S147 worked out at 2 µg/mL; with S. marcescens 5805 it was 4 µg/mL; with E. aerogenes 83 (setting [1]) it was 4 µg/mL; in the test with K. pneumoniae 503-964, 0.5 µg/mL; in the test with K. pneumoniae 8357 (setting [2]), 0.5 µg/mL; with E. cloacae 9295 it was 1 µg/mL. Also, the MIC is 0.5 µg/mL with K. pneumoniae 35 (setting [3]), greater than 128 µg/mL in the test with K. pneumoniae HE7, 0.25 µg/mL in the test on P. rettgeri ATCC 9250 and 0.25 µg/mL in the test on E. coli 257 (setting [4]).
